From patent publication US6087121A, “Chemiluminescent detection of heme proteins in biological samples” (Mayo Foundation for Medical Education and Research, priority 1999, dated 2000)

T1: Myeloperoxidase (Homo sapiens, UniProt P05164)
T1 sequence (P05164 49-745): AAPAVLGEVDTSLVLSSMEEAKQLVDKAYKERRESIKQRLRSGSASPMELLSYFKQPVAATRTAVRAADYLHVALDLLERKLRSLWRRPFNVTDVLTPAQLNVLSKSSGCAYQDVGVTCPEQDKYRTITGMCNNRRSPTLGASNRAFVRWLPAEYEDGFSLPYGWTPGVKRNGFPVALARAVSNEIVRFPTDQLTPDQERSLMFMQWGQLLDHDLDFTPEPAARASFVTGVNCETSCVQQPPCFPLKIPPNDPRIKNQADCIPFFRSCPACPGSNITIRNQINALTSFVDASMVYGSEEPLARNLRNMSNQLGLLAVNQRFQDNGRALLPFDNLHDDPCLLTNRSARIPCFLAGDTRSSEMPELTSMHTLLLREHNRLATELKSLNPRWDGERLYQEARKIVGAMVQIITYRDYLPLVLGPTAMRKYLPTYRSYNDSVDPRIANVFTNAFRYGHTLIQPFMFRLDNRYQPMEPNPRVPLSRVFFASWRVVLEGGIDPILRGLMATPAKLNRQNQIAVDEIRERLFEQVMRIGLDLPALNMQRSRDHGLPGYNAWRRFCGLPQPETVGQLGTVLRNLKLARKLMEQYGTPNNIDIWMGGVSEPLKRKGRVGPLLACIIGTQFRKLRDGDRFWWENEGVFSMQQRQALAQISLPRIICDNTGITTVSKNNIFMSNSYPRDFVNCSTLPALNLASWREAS

T2: Eosinophil Peroxidase (Homo sapiens, UniProt P11678)
T2 sequence (P11678 140-715): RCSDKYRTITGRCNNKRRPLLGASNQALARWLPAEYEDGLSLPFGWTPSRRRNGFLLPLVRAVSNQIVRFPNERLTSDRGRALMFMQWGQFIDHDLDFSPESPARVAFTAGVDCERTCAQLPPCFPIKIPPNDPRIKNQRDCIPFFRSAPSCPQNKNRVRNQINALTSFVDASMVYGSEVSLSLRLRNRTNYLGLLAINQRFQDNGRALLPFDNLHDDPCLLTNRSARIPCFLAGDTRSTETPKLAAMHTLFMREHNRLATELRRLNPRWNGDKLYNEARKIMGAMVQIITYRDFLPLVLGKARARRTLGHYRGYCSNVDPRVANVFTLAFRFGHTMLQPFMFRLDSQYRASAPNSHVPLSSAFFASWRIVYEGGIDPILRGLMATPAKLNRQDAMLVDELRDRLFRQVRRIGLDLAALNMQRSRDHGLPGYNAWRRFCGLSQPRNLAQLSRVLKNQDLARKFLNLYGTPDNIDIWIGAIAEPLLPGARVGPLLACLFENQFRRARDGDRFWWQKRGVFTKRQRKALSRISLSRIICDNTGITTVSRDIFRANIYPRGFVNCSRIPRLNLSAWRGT

T3: Myoglobin (Homo sapiens, UniProt P02144)
T3 sequence (P02144 1-154): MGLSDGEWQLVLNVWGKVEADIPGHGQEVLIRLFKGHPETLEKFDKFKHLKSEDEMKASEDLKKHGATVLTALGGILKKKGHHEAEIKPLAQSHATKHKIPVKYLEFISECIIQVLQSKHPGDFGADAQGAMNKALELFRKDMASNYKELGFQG

T4: Thyroid peroxidase (Homo sapiens, UniProt P07202)
T4 sequence (P07202 19-933): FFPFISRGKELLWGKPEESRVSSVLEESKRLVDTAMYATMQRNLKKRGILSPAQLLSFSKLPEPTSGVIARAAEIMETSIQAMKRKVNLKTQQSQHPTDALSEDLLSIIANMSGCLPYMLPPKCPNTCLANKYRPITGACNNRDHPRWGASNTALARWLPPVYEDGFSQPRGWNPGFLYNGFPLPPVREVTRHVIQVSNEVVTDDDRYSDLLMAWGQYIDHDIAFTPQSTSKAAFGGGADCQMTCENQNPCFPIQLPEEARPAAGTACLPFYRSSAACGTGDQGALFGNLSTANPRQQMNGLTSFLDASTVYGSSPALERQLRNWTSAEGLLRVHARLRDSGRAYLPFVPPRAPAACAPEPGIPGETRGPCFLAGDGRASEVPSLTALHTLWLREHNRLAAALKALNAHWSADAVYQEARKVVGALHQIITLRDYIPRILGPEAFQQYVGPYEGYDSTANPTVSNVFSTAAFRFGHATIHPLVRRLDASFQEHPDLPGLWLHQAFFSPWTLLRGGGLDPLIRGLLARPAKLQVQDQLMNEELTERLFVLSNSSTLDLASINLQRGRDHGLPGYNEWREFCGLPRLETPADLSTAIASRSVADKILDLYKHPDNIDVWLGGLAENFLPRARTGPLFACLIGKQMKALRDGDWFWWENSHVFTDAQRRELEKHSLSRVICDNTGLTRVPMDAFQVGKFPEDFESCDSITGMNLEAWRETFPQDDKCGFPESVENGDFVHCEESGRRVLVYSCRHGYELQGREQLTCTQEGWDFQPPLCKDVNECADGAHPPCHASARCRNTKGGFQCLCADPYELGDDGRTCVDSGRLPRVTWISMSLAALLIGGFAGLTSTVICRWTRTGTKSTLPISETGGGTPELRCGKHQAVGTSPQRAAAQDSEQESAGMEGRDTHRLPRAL

T5: MPO (Homo sapiens, UniProt P05164)
T5 sequence (P05164 49-745): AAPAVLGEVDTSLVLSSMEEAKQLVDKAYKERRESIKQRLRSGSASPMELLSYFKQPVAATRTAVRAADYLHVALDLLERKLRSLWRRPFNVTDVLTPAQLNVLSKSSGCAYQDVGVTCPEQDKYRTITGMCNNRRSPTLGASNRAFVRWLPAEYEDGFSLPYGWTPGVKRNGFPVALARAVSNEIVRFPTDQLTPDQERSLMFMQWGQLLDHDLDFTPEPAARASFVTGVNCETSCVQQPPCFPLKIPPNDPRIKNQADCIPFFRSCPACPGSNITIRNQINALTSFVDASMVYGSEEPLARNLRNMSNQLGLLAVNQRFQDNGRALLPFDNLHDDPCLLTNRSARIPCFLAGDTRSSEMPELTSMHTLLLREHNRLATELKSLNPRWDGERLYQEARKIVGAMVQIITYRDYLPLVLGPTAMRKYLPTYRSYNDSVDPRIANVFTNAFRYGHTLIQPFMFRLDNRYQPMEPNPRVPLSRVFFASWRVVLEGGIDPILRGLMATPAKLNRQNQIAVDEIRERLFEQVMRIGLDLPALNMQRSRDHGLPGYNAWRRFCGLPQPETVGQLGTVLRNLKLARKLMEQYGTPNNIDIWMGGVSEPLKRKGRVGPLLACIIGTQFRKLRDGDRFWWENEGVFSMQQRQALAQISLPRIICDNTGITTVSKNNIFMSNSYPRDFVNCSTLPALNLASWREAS


Key:
[1] = target: T1, Myeloperoxidase; assay: Inhibition of peroxidase activities with PS-1 by methimazole: Myeloperoxidase; format: biochemical; conditions: 50 μmol/L methimazole, enzyme 1 μg/mL
Protocol: (§1) Urine samples were diluted 1:4 into distilled water to minimize inhibitory effects observed with hyperosmolal urines. Two μL of diluted urine were added to 12×75 mm polystyrene test tube containing 50 μL of the PS-1 solution. The tubes were incubated at 37° C. for 5 minutes. MPO activity was determined by chemiluminescence emission using a Turner TD-20e luminometer maintained at 37° C. Leukocyte counting was performed manually by using a hemacytometer chamber (Kova Glasstic slide, Hycor, Irvine, Calif.) on each urine sample to determine the number of cells/mL.
(§2) The reactivity of PS-1 with heme proteins was assessed to determine if this substrate had more restricted specificity. Materials and methods were according to the description above.
(§3) Several peroxidases were detected with PS-1 substrate including EPO, MPO, LPO, and TPO. Addition of 50 μmol/L methimazole, an inhibitor of EPO, reduces activities of EPO, TPO and LPO by >90%, while MPO was inhibited by less than about 50% (Table 6). The addition of methimazole to the PS-1 assay allows MPO activity to be detected selectively.

[2] = target: T2, Eosinophil Peroxidase; assay: Inhibition of peroxidase activities with PS-1 by methimazole: Eosinophil Peroxidase; format: biochemical; conditions: 50 μmol/L methimazole, enzyme 1 μg/mL
Protocol: as §1, §2, §3

[3] = target: T3, Myoglobin; assay: Inhibition of peroxidase activities with PS-1 by methimazole: Myoglobin; format: biochemical; conditions: 50 μmol/L methimazole, protein 1 μg/mL
Protocol: (§4) Centricon ultrafiltration filters were obtained from Amicon (Daven, Mass.). Polystyrene tubes (5.0 mL volume, 75×12 mm) used for the assay were manufactured by Sarstedt (Arlington Heights, Ill.). The chemiluminescent substrate, 7-dimethylamino-naphthalene-1,2-dicarbonic acid-hydrazide (7-DNH) was purchased from Boehringer Mannheim (Indianapolis, Ind.). PS-1 acridan substrate (solution A and solution B) was obtained from Lumigen Inc. (Southfield, Mich.). Dimethyl sulfoxide, cetyltrimethyl-ammonium chloride (CTAC) as a 25% liquid and glycerol were obtained from Aldrich Chemical Company Inc. (Milwaukee, Wis.). Tween-20 and Sodium Chloride were purchased from Fisher Scientific (Fair Lawn, N.J.). […]
(§5) Urine samples were diluted 1:4 into distilled water to minimize inhibitory effects observed with hyperosmolal urines. […] MPO activity was determined by chemiluminescence emission using a Turner TD-20e luminometer maintained at 37° C. […]
(§6) The reactivity of PS-1 with heme proteins was assessed to determine if this substrate had more restricted specificity. […]

[4] = target: Lactoperoxidase (Bos taurus, UniProt P80025); assay: Inhibition of peroxidase activities with PS-1 by methimazole: Lactoperoxidase; format: biochemical; conditions: 50 μmol/L methimazole, enzyme 1 μg/mL
Protocol: as §1, §2, §3

[5] = target: T4, Thyroid peroxidase; assay: Inhibition of peroxidase activities with PS-1 by methimazole: Thyroid peroxidase; format: biochemical; conditions: 50 μmol/L methimazole, enzyme 1 μg/mL
Protocol: as §1, §2, §3

[6] = target: Hemoglobin (Homo sapiens, UniProt P68871+P69905); assay: Inhibition of peroxidase activities with PS-1 by methimazole: Hemoglobin; format: biochemical; conditions: 50 μmol/L methimazole, protein 1 μg/mL
Hemoglobin, sequence (P69905 whole entry): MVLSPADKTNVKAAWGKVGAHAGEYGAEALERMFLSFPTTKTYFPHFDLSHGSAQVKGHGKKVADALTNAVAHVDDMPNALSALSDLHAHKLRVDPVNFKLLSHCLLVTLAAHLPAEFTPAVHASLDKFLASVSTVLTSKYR
Hemoglobin, sequence (P68871 whole entry): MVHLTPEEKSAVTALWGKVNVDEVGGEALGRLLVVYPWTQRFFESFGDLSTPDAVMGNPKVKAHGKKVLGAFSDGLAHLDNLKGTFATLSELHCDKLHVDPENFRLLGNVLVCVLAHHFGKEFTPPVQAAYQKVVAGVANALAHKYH
Protocol: as §4, §5, §6

[7] = Activity of hemoglobin and myoglobin (oxidation states of iron, standard curves) with 7-DNH; format: biochemical
Protocol: The effect of the oxidation state of the heme iron on chemiluminescence emission was evaluated. Equal concentrations of hemoglobin and myoglobin were used. Standard solutions of Hb and Mb at varying concentrations were assayed to evaluate their behavior in the reaction.
With the addition of dithionite to the lysing agent, all of the iron in hemoglobin is immediately converted to the ferrous oxidation which subsequently reacts with H2 O2 and the substrate to form product. OxyHb and oxyMb […] were made by reducing methemoglobin/metmyoglobin with sodium dithionite and then oxygenating each protein by subsequent passage through a Sephadex column. The oxidation of oxyHb/oxyMb to the ferry (Fe^+4) oxidation state was achieved by adding an excess of H2 O2 to the protein solutions.

[8] = tested on: Hb; assay: Interference studies in Hb assay (7-DNH chemiluminescence); format: biochemical, human; conditions: level producing a signal equivalent to 3 RBC per high power field, fixed Hb concentration
Protocol: Numerous potential interfering substances, which either enhance or quench the signal generated by cyclic hydrazides, were evaluated. The effects of these potentially interfering substances on light emission was investigated at varying concentrations of the interfering composition. Assays were performed using serial dilutions of the potential interfering compositions in ultrafiltered urine at a fixed concentration of Hb. Comparisons of chemiluminescence emission were made between a reference solution (Hb in ultrafiltered urine) without added interfering compositions and solutions with added interferant.
Generally, the value of 3 RBC per high power field is the normal cutoff point.
Bilirubin and uric acid were examined as a possible negative interfering compositions because of their chemical structure which may quench energy emitted.

[9] = target: T5, MPO; assay: Effects of potential interfering substances in WBC (MPO, PS-1) assay; format: biochemical
Protocol: as §1
Several possible interfering substances were added to urine and tested for inhibitory effects. Several common medications were also tested for potential inhibitory effects. […] Hb at concentrations of >10 μg/mL and Mb at concentrations >2 μg/mL were detected by the PS-1 substrate as the chemiluminescence emission was above the normal urine background. Samples grossly populated with bacteria caused slight inhibition of the MPO activity. Urine samples may contain many epithelial cells, casts, crystals, and numerous artifacts but none of these appear to interfere with the chemiluminescence emission from MPO.

Molecule | Chemiluminescence with methimazole [1] [TLU] | inhibition at 50 µM [1] [%] | Chemiluminescence with methimazole [2] [TLU] | inhibition at 50 µM [2] [%] | Chemiluminescence with methimazole [3] [TLU] | inhibition at 50 µM [3] [%] | Chemiluminescence with methimazole [4] [TLU] | inhibition at 50 µM [4] [%] | Chemiluminescence with methimazole [5] [TLU] | inhibition at 50 µM [5] [%] | Chemiluminescence with methimazole [6] [TLU] | inhibition at 50 µM [6] [%] | reactivity of Mb relative to Hb (fold less reactive) ([7]; alternative source of Mb, 7-DNH) | activity compared to Hb ([7]; up to 4 μg/mL, FIG. 7) | Level of Interference [8] [µg/mL] | Level of Interference ([8]; listed as Mb) | Level of Interference ([8]; listed as myoglobin) | interference with PS-1 assay ([9]; Mb <2 μg/mL) | Interference ([9]; level giving signal equal to 5 WBC/high power field, highest tested: hemoglobin 250, myoglobin 200 μg/mL) [µg/mL]
Cn1cc[nH]c1=S [Methimazole, methimazole] | 130 | 58 | 74 | > 90 | 1.9 | 39 | 0.9 | > 90 | 0.1 | > 90 | 0.8 | 9 |  |  |  |  |  |  | 
Myoglobin: Human heart myoglobin obtained from Calbiochem (protein, UniProt P02144 2-154, looked up) Myoglobin: GLSDGEWQLVLNVWGKVEADIPGHGQEVLIRLFKGHPETLEKFDKFKHLKSEDEMKASEDLKKHGATVLTALGGILKKKGHHEAEIKPLAQSHATKHKIPVKYLEFISECIIQVLQSKHPGDFGADAQGAMNKALELFRKDMASNYKELGFQG |  |  |  |  |  |  |  |  |  |  |  |  | about 30 -fold | very little activity | > 3.8 | above 4 μg/mL | approximately 4 μg/mL | did not interfere | > 2
